Assay results reported in patent publication US20030199558A1, “Hydroxamic acid and its derivatives as inhibitors of melanocyte tyrosinase for topical skin lighteners” (Integriderm, Inc., priority 2001, published 2003).
In brackets after ≈: the same amount, converted by molar mass. Several values for one entry are separate records, joined by “and”; a condition that tells them apart may be missing. Identical values can stand only once. Like-named read-outs stand apart in the source and are kept apart here.

Key:
mammalian tyrosinase [1] = biological target: T1, mammalian tyrosinase (Mus musculus, UniProt P11344); assay: cell-free mammalian tyrosinase enzyme assay; format: biochemical; details: cell-free enzyme extract; read-out: E: concentration of compound that produces 50% inhibition in the cell-free mammalian tyrosinase enzyme assay
T1 construct: Cellular lysates of Mel-Ab cells may be used as tyrosinase enzyme preparations; endogenous in cells; host or cells: Mel-Ab mouse melanocytes (cell lysate)
T1 sequence (P11344 19-533): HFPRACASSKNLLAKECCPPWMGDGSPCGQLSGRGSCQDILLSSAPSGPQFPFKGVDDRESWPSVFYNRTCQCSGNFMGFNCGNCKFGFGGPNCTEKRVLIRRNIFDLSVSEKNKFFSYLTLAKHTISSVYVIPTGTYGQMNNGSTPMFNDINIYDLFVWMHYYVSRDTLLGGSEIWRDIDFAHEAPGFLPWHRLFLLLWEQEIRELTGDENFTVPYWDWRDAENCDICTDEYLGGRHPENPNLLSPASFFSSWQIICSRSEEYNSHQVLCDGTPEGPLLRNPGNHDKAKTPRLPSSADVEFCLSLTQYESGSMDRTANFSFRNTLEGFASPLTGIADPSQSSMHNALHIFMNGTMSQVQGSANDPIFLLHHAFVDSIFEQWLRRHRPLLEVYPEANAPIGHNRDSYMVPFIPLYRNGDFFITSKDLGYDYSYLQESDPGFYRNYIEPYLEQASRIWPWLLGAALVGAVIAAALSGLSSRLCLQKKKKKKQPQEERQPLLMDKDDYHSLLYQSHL
Excerpt: (§1) In the present invention, one or more of three in vitro bioassays can be utilized to evaluate the efficacy and toxicity of candidate skin-lightening compounds. The three bioassays characterize the compounds with regard to mammalian tyrosinase enzyme inhibition (cell free), pigmentation in cultured melanocyte cells, and cytotoxicity of mammalian cultured cells. Both cell-based pigmentation and cell-free enzymatic assays have been developed using the mammalian melanocyte cell line, Mel-Ab, a C57BL/6 mouse-derived cell line that produces high levels of melanin. A distinct advantage of this approach is that humans share substantial sequence similarities in their genes (DNA) and proteins (such as tyrosinase) with mice, relative to non-mammalian species (e.g., mushrooms). So, in vitro mouse Mel-Ab melanocytes can serve as adequate surrogates for human melanocytes and Mel-Ab-derived tyrosinase may substitute for the human enzyme for many pharmacologic purposes.
(§2) These adherent murine melanocytes are grown on tissue culture plastic in medium supplemented with fetal bovine serum, 12-O-tetradecanoylphorbol-13-acetate (TPA) to stimulate cell division via down-regulation of protein kinase C, [22, 23] and cholera toxin to stimulate adenylate cyclase activity in the absence of α-MSH. Cellular lysates of Mel-Ab cells may be used as tyrosinase enzyme preparations. Multi-well plate assays have been validated for enzyme inhibition (e.g., DOPA oxidation by calorimetric measurement or radiolabeled substrate incorporation into melanin) and for pigmentation assays on cultured Mel-Ab cells. After 4-6 days of treatment of cultured cells, melanin content is determined using a spectrophotometer at 400+ nm. This assay can detect an apparent loss in pigmentation resulting from either inhibition of de novo synthesis (e.g. via inhibition of tyrosinase, or the adenylate cyclase pathway, or another pathway) or a cytostatic/cytotoxic mechanism. It is therefore a broad primary screen. It is used in parallel with the tyrosinase enzymatic assay to determine whether an inhibitor of pigmentation at the cellular level is acting primarily at the enzyme level.
A first class of compounds based upon the template compound benzohydroxamic acid were tested for tyrosinase inhibition by methods described in Curto, E. V., et al. (1999). Results of the tests are given in Examples 1-5.
(§3) Inhibition [μM] as measured in three assays. Here “E” “E” [μM] is the concentration of compound that produces 50% inhibition in the cell-free mammalian tyrosinase enzyme assay is the concentration of compound that produces 50% inhibition in the cell-free mammalian tyrosinase enzyme assay. “P” represents the concentration of compound that produces 50% inhibition in the mammalian Mel Ab melanocyte culture pigment assay system. “T” is the concentration of compound that results in 50% reduction in cell number in the mammalian melanocyte culture toxicity assay system.

Mel Ab melanocyte [2] = assay: mammalian Mel Ab melanocyte culture pigment assay; format: cell-based, mouse; details: read-out: P: concentration of compound that produces 50% inhibition in the mammalian Mel Ab melanocyte culture pigment assay
Excerpt: as §1, §2, §3

[3] = tested on: mammalian melanocyte culture; assay: mammalian melanocyte culture toxicity assay; format: cell-based, mouse
Excerpt: To determine cytotoxicity (and/or cytostasis), crystal violet or other staining methods may be used to quantify adherent cell numbers following a period of treatment by an agent.

mammalian tyrosinase [4] = biological target: T1, mammalian tyrosinase; details: cited from earlier work
Mel Ab melanocyte [5] = details: cited from earlier work
[6] = tested on: mammalian melanocyte culture; details: cited from earlier work

## O=C(NO)c1ccncc1 [ID-245]
Mammalian tyrosinase [1]
  IC50: 3.2 µM
Mel Ab melanocyte [2]; Mus musculus, Mel-Ab
  IC50: 183 µM
[3]
  T: concentration of compound that results in 50% reduction in cell number in the mammalian melanocyte culture toxicity assay: 566 µM

## O=C(NO)c1ccccc1O [ID-282, Salicylhydroxamic acid]
Mammalian tyrosinase [1]
  IC50: 3.7 µM
[3]
  T: concentration of compound that results in 50% reduction in cell number in the mammalian melanocyte culture toxicity assay: 974 µM

## Nc1ccccc1C(=O)NO [ID-318, 2-Aminobenzohydroxamic acid]
Mammalian tyrosinase [1]
  IC50: 19 µM
Mel Ab melanocyte [2]; Mus musculus, Mel-Ab
  IC50: 431 µM
[3]
  T: concentration of compound that results in 50% reduction in cell number in the mammalian melanocyte culture toxicity assay: 600 µM

## O=C(NO)c1ccccc1 [ID-357, Benzohydroxamic acid]
Mammalian tyrosinase [1]
  IC50: 0.82 µM
Mel Ab melanocyte [2]; Mus musculus, Mel-Ab
  IC50: 64 µM
[3]
  T: concentration of compound that results in 50% reduction in cell number in the mammalian melanocyte culture toxicity assay: 64 µM

## COc1ccc(C(=O)NO)cc1OC [ID-456, 3,4-Dimethoxybenzohydroxamic acid]
Mammalian tyrosinase [1]
  IC50: 15 µM
Mel Ab melanocyte [2]; Mus musculus, Mel-Ab
  IC50: 576 µM
[3]
  T: concentration of compound that results in 50% reduction in cell number in the mammalian melanocyte culture toxicity assay: 641 µM

## COc1ccc(C(=O)N[O-])cc1OC.[K+] [ID-458, Potassium salt of 3,4-dimethoxy-benzohydroxamic acid]
Mammalian tyrosinase [1]
  IC50: 23 µM
Mel Ab melanocyte [2]
  IC50: 637 µM
[3]
  T: concentration of compound that results in 50% reduction in cell number in the mammalian melanocyte culture toxicity assay: 624 µM

## Nc1cccc(C(=O)NO)c1 [ID-461, 3-Aminobenzohydroxamic acid]
Mammalian tyrosinase [1]
  IC50: 4 µM
Mel Ab melanocyte [2]; Mus musculus, Mel-Ab
  IC50: 225 µM
[3]
  T: concentration of compound that results in 50% reduction in cell number in the mammalian melanocyte culture toxicity assay: >1000 µM

## COc1ccc(C(=O)NO)c(O)c1 [ID-462]
Mammalian tyrosinase [1]
  IC50: 3.6 µM
Mel Ab melanocyte [2]; Mus musculus, Mel-Ab
  IC50: > 1000 µM
[3]
  T: concentration of compound that results in 50% reduction in cell number in the mammalian melanocyte culture toxicity assay: >1000 µM

## CC(=O)c1ccc(O)c(C(=O)NO)c1 [ID-474]
Mammalian tyrosinase [1]
  IC50: 51 µM
Mel Ab melanocyte [2]; Mus musculus, Mel-Ab
  IC50: > 1000 µM
[3]
  T: concentration of compound that results in 50% reduction in cell number in the mammalian melanocyte culture toxicity assay: >1000 µM

## Nc1ccc(C(=O)NO)cc1 [ID-476, 4-Aminobenzohydroxamic acid]
Mammalian tyrosinase [1]
  IC50: 0.34 µM
Mel Ab melanocyte [2]; Mus musculus, Mel-Ab
  IC50: 64 µM
[3]
  T: concentration of compound that results in 50% reduction in cell number in the mammalian melanocyte culture toxicity assay: 550 µM

## CCCCOc1ccc(C(=O)NO)cc1 [ID-477, 4-Butoxybenzohydroxamic acid]
Mammalian tyrosinase [1]
  IC50: 12 µM
Mel Ab melanocyte [2]; Mus musculus, Mel-Ab
  IC50: 326 µM
[3]
  T: concentration of compound that results in 50% reduction in cell number in the mammalian melanocyte culture toxicity assay: >554 µM

## COc1cccc(C(=O)NO)c1 [ID-478, 3-Methoxybenzohydroxamic acid]
Mammalian tyrosinase [1]
  IC50: 0.91 µM
Mel Ab melanocyte [2]; Mus musculus, Mel-Ab
  IC50: 148 µM
[3]
  T: concentration of compound that results in 50% reduction in cell number in the mammalian melanocyte culture toxicity assay: 580 µM

## COc1ccc(C(=O)N[O-])cc1.[K+] [ID-479, Potassium salt of 4-methoxybenzohydroxamic acid]
Mammalian tyrosinase [1]
  IC50: 1.67 µM
Mel Ab melanocyte [2]
  IC50: 43 µM
[3]
  T: concentration of compound that results in 50% reduction in cell number in the mammalian melanocyte culture toxicity assay: 64 µM

## COc1ccc(C(=O)NO)cc1 [ID-480, 4-Methoxybenzohydroxamic acid]
Mammalian tyrosinase [1]
  IC50: 1.26 µM
Mel Ab melanocyte [2]; Mus musculus, Mel-Ab
  IC50: 57 µM
[3]
  T: concentration of compound that results in 50% reduction in cell number in the mammalian melanocyte culture toxicity assay: 170 µM

## Cc1cccc(C(=O)NO)c1 [ID-481, 3-Methylbenzohydroxamic acid]
Mammalian tyrosinase [1]
  IC50: < 0.25 µM
Mel Ab melanocyte [2]; Mus musculus, Mel-Ab
  IC50: 60 µM
[3]
  T: concentration of compound that results in 50% reduction in cell number in the mammalian melanocyte culture toxicity assay: 522 µM

## O=C(NO)c1cccc(Cl)c1 [ID-482, 3-Chlorobenzohydroxamic acid]
Mammalian tyrosinase [1]
  IC50: < 0.25 µM
Mel Ab melanocyte [2]; Mus musculus, Mel-Ab
  IC50: 40 µM
[3]
  T: concentration of compound that results in 50% reduction in cell number in the mammalian melanocyte culture toxicity assay: 577 µM

## COc1ccccc1C(=O)NO [ID-483, 2-Methoxybenzohydroxamic acid]
Mammalian tyrosinase [1]
  IC50: 32 µM
Mel Ab melanocyte [2]; Mus musculus, Mel-Ab
  IC50: 807 µM
[3]
  T: concentration of compound that results in 50% reduction in cell number in the mammalian melanocyte culture toxicity assay: 900 µM

## CC(=O)Nc1ccccc1C(=O)NO [ID-484, 2-Acetamidobenzohydroxamic acid]
Mammalian tyrosinase [1]
  IC50: > 231 µM
Mel Ab melanocyte [2]; Mus musculus, Mel-Ab
  IC50: > 1000 µM
[3]
  T: concentration of compound that results in 50% reduction in cell number in the mammalian melanocyte culture toxicity assay: >1000 µM

## Cc1cccc(C(=O)N(C)O)c1 [ID-485, 3,N-Dimethylbenzohydroxamic acid]
Mammalian tyrosinase [1]
  IC50: 68 µM
Mel Ab melanocyte [2]; Mus musculus, Mel-Ab
  IC50: > 1000 µM
[3]
  T: concentration of compound that results in 50% reduction in cell number in the mammalian melanocyte culture toxicity assay: >1000 µM

## CC(=O)Nc1cccc(C(=O)NO)c1 [ID-486, 3-Acetamidobenzohydroxamic acid]
Mammalian tyrosinase [1]
  IC50: 5.3 µM
Mel Ab melanocyte [2]; Mus musculus, Mel-Ab
  IC50: 369 µM
[3]
  T: concentration of compound that results in 50% reduction in cell number in the mammalian melanocyte culture toxicity assay: >1000 µM

## Cc1ccc(C(=O)NO)cc1 [ID-497, 4-Methylbenzohydroxamic acid]
Mammalian tyrosinase [1]
  IC50: 0.29 µM
Mel Ab melanocyte [2]; Mus musculus, Mel-Ab
  IC50: 45 µM
[3]
  T: concentration of compound that results in 50% reduction in cell number in the mammalian melanocyte culture toxicity assay: 160 µM

## CN(C)c1ccc(C(=O)NO)cc1 [ID-498, 4-Dimethylaminobenzo-hydroxamic acid]
Mammalian tyrosinase [1]
  IC50: 2.2 µM
Mel Ab melanocyte [2]; Mus musculus, Mel-Ab
  IC50: 44 µM
[3]
  T: concentration of compound that results in 50% reduction in cell number in the mammalian melanocyte culture toxicity assay: 136 µM

## Cc1ccc(C(=O)NO)cc1N [ID-499, 13-Amino-4-methyl-benzohydroxamic acid]
Mammalian tyrosinase [1]
  IC50: 6.4 µM
Mel Ab melanocyte [2]; Mus musculus, Mel-Ab
  IC50: 177 µM
[3]
  T: concentration of compound that results in 50% reduction in cell number in the mammalian melanocyte culture toxicity assay: 747 µM

## O=C(NO)c1cccc(Oc2ccccc2)c1 [ID-500, 3-Phenoxybenzohydroxamic acid]
Mammalian tyrosinase [1]
  IC50: 0.16 µM
Mel Ab melanocyte [2]; Mus musculus, Mel-Ab
  IC50: 234 µM
[3]
  T: concentration of compound that results in 50% reduction in cell number in the mammalian melanocyte culture toxicity assay: >300 µM

## Oc1ccc(O)cc1 [hydroquinone]
Mammalian tyrosinase [4]
  enzymatic inhibition: minimal enzymatic inhibition
Mel Ab melanocyte [5]; positive control, owing to cytotoxicity and not inhibition of pigmentation per se
  IC50 on Mel-Ab culture: low micrograms per milliliter range
[6]
  melanocyte cytotoxicity: potent melanocyte cytotoxicity

## COC(=O)c1cc(O)ccc1O [methyl gentisate]
Mammalian tyrosinase [4]; Curto et al. (1999), read-out: IC50 against tyrosinase in cell-free assays (converted)
  IC50: 67 µM and 66.6 µM
Mel Ab melanocyte [5]; Curto et al. (1999)
  IC50 in pigmentation inhibition in melanocyte cell cultures: 30.9 ± 5 µg/mL (≈ 184 µM)
Mel Ab melanocyte [5]; Curto et al. (1999), read-out: IC50 in pigmentation inhibition in melanocyte cell cultures
  IC50: 184 µM
[6]; Curto et al. (1999)
  melanocyte cytotoxicity IC50: 118.7 ± 12 µg/mL
[6]; Curto et al. (1999), read-out: melanocyte cytotoxicity IC50
  IC50: 707 µM
